For this data set, the system named is P-gp. Kind of data set: Bidirectional transport in MDCKⅡ-MDR1 cell monolayers. It counts as in vitro ADME. As to conditions: dog. How it is done: To further validate the effect of P-gp on the transport of IMM-H004G or IMM-H004, MDCKⅡ-MDR1 cells were seeded onto polycarbonate membrane transwell inserts in 24-well plates and used for transport studies after 5 days or when the effective transepithelial electric resistance (TEER) values exceeded 300 Ω·cm^2. The monolayers were initially rinsed twice with HBSS. Subsequently, IMM-H004G or IMM-H004 (10 µmol/L) was added to either the apical or basolateral side of the monolayer. Aliquots of 50 µL were collected from the opposite compartment at various time points, covering a maximum duration of 120 min. Digoxin (5 μmol/L) was used as a positive substrate, while PSC833 (5 µmol/L) was used as an inhibitor in MDCKⅡ-MDR1 cells. The apparent permeability value (Papp) was calculated using the following equation:(2) Papp=dQ/dt/AC0 where dQ/dt is the slope of the cumulative transport amount over time during the study period. A is the base area of the insert, and C0 is the initial addition concentration.
The efflux ratio (ER) was calculated as follows:ER = Papp(B−A)/Papp(A−B) (3)

Our source for the efflux ratio values is publication PMC10975012, “The Active Glucuronide Metabolite of the Brain Protectant IMM-H004 with Poor Blood–Brain Barrier Permeability Demonstrates a High Partition in the Rat Brain via Multiple Mechanisms” (Pharmaceutics, 2024).

Structures are written as SMILES. Read-outs that look alike come from different tables or passages of the source.

For `C[C@H]1O[C@@H](O[C@H]2[C@@H](O)C[C@H](O[C@H]3[C@@H](O)C[C@H](O[C@H]4CC[C@@]5(C)[C@H](CC[C@@H]6[C@@H]5C[C@@H](O)[C@]5(C)[C@@H](C7=CC(=O)OC7)CC[C@]65O)C4)O[C@@H]3C)O[C@@H]2C)C[C@H](O)[C@@H]1O` [digoxin, reference compound], the efflux ratio at 120 min was 1.41 (MDCK-MDR1, with PSC833 5 µmol/L, MDCKⅡ-MDR1, PSC833 5 µmol/L, read-out: efflux ratio (ER) in the presence of PSC833) and 21.1 (MDCK-MDR1, MDCKⅡ-MDR1, no inhibitor, IMM-H004 10 µmol/L, digoxin 5 μmol/L, read-out: efflux ratio (ER)).
